Counter-ions that a name gives are not always drawn.
Experiments:
[1] = tested on: human melanoma cells and endothelial cells; test: In vitro cell proliferation, viability and serum starvation survival; format: cell-based; settings: for cell proliferation or cell viability rates: MeWo, HT-144, SK-Mel-334.2 cells, 1 μM, 5 days
Procedure: To determine the effects of miR-199a or miR-1908 over-expression and combinatorial LNA-induced miRNA inhibition on cell proliferation, 2.5×10^4 cells were seeded in triplicate in 6-well plates, and viable cells were counted after 5 days. […] Viable cells were counted after 8, 24, 48, 72, and 120 hours.
The number of viable cells was counter after 8, 16, and 24 hours.
To determine the effects of GW3965, T0901317, and Bexarotene on in vitro cell growth, 2.5×10^4 melanoma cells were seeded in triplicate in 6-well plates and cultured in the presence of DMSO, GW3965, T0901317, or Bexarotene at 1 μM each. After 5 days, the number of viable and dead cells was counted using the trypan blue dye (72-57-1, Sigma-Aldrich), which selectively labels dead cells.

[2] = tested on: HUVEC recruited by human melanoma cells; test: Trans-well endothelial recruitment assay; format: cell-based; settings: for ability of melanoma cells to recruit endothelial cells: MeWo, HT-144, SK-Mel-2, SK-Mel-334.2, 1 μM for 72 hours
Procedure: 5×10^4 cancer cells were seeded into 24-well plates approximately 24 hours prior to the start of the assay. HUVEC's were grown to 80% confluency and serum starved in EGM-2 media supplemented with 0.2% FBS for 16 hours. HUVEC's were then pulsed with Cell Tracker Red CMTPX dye (C34552, Invitrogen) for 45 minutes. Meanwhile, cancer cells were washed with PBS, 0.5 mL of 0.2% FBS EGM-2 media was added to each well, and a 3.0 μm HTS Fluoroblock insert (351151, BD Falcon, San Jose, Calif.) was placed into each well. 1×10^5 HUVEC's, resuspended in 0.5 mL of starvation media, were seeded into each trans-well insert, and the recruitment assay was allowed to proceed for 16-18 hours at 37° C. For neutralization antibody and/or recombinant protein experiments, antibody/protein was then added to each well at the appropriate concentration as indicated in the figures: 40 μg/mL anti-ApoE 1D7, 40 μg/mL anti-IgG, 100 μM rhApoE3, and 100 μM BSA. Upon completion of the assay, the inserts were processed and analyzed as described for the matrigel invasion assay above (See Matrigel Invasion Assay).
The endothelial recruitment assay was carried out as previously described (Pencheva et al., 2012; Png et al., 2012). Melanoma cells were treated with DMSO, GW3965, T0901317, or Bexarotene at 1 μM for 56 hours, after which 5×10^4 cells were seeded in a 24-well plate in the presence of each drug and allowed to attach for 16 hours prior to starting the assay. HUVEC cells were serum-starved overnight in EGM-2 media containing 0.2% FBS. The following day, 1×10^5 HUVEC cells were seeded into a 3.0 μm HTS Fluoroblock trans-well migration insert (351151, BD Falcon, San Jose, Calif.) fitted into each well containing cancer cells at the bottom. The HUVEC cells were allowed to migrate towards the cancer cells for 20 hours at 37° C., after which the inserts were processed as previously described (Pencheva et al., 2012). For ApoE antibody neutralization experiments, 40 μg/mL 1D7 anti-ApoE blocking antibody (Heart Institute, University of Ottawa, Ottawa, Canada) or 40 μg/mL anti-IgG control antibody (AB-108-C, R&D Systems, Minneapolis, Minn.) was added to each trans-well insert at the start of the assay.
Subsequently, 5×10^4 cancer cells were seeded into 24-well plates in the presence of each drug or DMSO and allowed to attach for 16 hours prior to starting the assay. Human umbilical vein endothelial cells (HUVEC cells) were serum-starved in 0.2% FBS-containing media overnight. The following day, 1×10^5 HUVEC cells were seeded into a 3.0 μm HTS Fluoroblock insert (351151, BD Falcon) fitted into each well containing the cancer cells at the bottom. The HUVEC cells were allowed to migrate towards the cancer cells for 20 hours, after which the inserts were washed in PBS, fixed in 4% PFA, labeled with DAPI, and mounted on slides. The basal side of each insert was imaged using an inverted fluorescence microscope (Zeiss Axiovert 40 CFL) at 5× magnification, and the number of DAPI-positive cells was quantified using ImageJ.

[3] = MeWo-LM2 or endothelial cells, ApoE 100 μM

Compound	cell proliferation or cell viability rates [1]	ability of melanoma cells to recruit endothelial cells [2]	endothelial recruitment ([2]; parental MeWo cells pre-treated 48 hours)	melanoma cell or endothelial cell in vitro proliferation [1, 3]	survival in serum starvation conditions [1, 3]	ability of endothelial cells to migrate towards highly metastatic cancer cells ([2]; endothelial cells pre-treated 24 hours, 100 μM)	endothelial recruitment by metastatic LM2 cells ([2]; recombinant ApoE3 100 μM in cell media)
O=S(=O)(c1ccccc1)N(CC(F)(F)F)c1ccc(C(O)(C(F)(F)F)C(F)(F)F)cc1 [T0901317 1]	did not affect	consistently suppressed	–	–	–	–	–
O=C(O)Cc1cccc(OCCCN(Cc2cccc(C(F)(F)F)c2Cl)CC(c2ccccc2)c2ccccc2)c1 [GW3965 2, 3-[3-[N-(2-Chloro-3-trifluoromethylbenzyl)-(2,2-diphenylethyl)amino]propyloxy]phenylacetic acid hydrochloride]	did not affect	consistently suppressed	decreased	–	–	–	–
recombinant human ApoE3: recombinant human ApoE3 (4696, BioVision)	–	–	–	did not affect	did not affect	significantly reduced	significantly suppressed

From patent US9399028B2, “Treatment of drug resistant cancer” (ROCKEFELLER UNIVERSITY (THE), priority 2012, dated 2016)
